Test results reported in US20110251085A1, “IN VITRO METHOD TO DETERMINE WHETHER A DRUG CANDIDATE ACTIVE AGAINST A TARGET PROTEIN IS ACTIVE AGAINST A VARIANT OF SAID PROTEIN” (VIVALIS, priority 2008, published 2011).
pIC50: −log10 of the molar value. Where “and” joins values, the source holds several entries; their conditions need not be identical. Identical values can stand only once.

Tests used:
[1] = target: T1, native NS5BΔ21 (Hepatitis C virus genotype 1b, UniProt P26662); assay: 3D-Screen-NS5B platform, luciferase reporter, Hela cells, native NS5BΔ21; assay type: cell-based, HCV genotype 1b; settings: for inhibition of the luciferase signal (in words): native NS5B platform, Hela cells; for pIC50: native NS5BΔ21, 3D-sensor N21C272, 24 hours, read-out: IC50 (luciferase inhibition)
T1 construct: expressed in transfected cells; host or cells: Hela cells, plasmid pVVS478
Description: (§1) Transfections were performed for 2 hours in 100 mm dishes in 2 to 4 million cells with 5 to 20 ug of total DNA complexed to jetPEI (PolyPLus transfection, Illkirch, France) with a N/P ratio of 8 The optimal ratio between the plasmids encoding for the luciferase reporter, the target and the selected 3Dsensor was: 3 ug/1 ug/0.5 ug. Cells were dissociated and 25000 cells per well were seeded in 96 well culture treated plates (BD Biosciences, Erembodegem, Belgium).
Compound library's plates were thawed at room temperature. Drugs were handled by a Genesis workstation (Tecan, Lyon, France) and added to the cells at a 5 uM (in 0.5% DMSO) final concentration. Screening was performed by runs of twenty plates. Hits were identified by measurement of the luciferase activity.
(§2) Cell culture supernatant was discarded and 100 ul of Lysis buffer were added to each well. Following […] of vigorous shaking, the lysate was transferred to white opaque 96 well-plates and 100 ul of Luciferin buffer were added. Chemi-luminescence measurement was performed immediately using a Microlumat LB96 luminometer (Berthold, Thoiry, France) with 1 or 10 sec integration time.
Selected hits were synthesized and tested at concentrations varying between 0.01 uM and 100 uM final concentration so as to determine their IC50 on 3 independent experiments.
3D-sensors confirmed in yeast were further investigated in human cells. Among the reasons of choosing Hela cells figured their wide use, easiness of manipulation and capacity of replicating subgenomic HCV replicons (Zhu et al., 2003; Kato et al., 2005).
To validate whether drug's action on our system was stokiometric or not, Hela cells were transiently transfected with three expression plasmids encoding the reporter gene luciferase, the target protein and the conformation sensitive peptide N21C272. After incubation with increasing amounts of reference drugs cVVS-023476 or cVVS-023477, luciferase expression was measured.

[2] = system: NS5BΔ21 Indol sensitive mutants; assay type: cell-based, HCV genotype 1b
Description: (§3) Percentages of reporter's inhibition were represented for cells incubated with a specific NS5B inhibitors at increasing concentrations for 24 hours.
as §1, §2
(§4) After incubation for 24 hours with increasing concentrations of cVVS023477 (a compound belonging to the Benzothiadiazin family) or cVVS-023476 (a compound belonging to the Indol N Acetamid family), luciferase expression was measured.

[3] = target: T2, native NS4A-NS3 protease (Hepatitis C virus genotype 1b, UniProt P26662, I1158V/V1140I); assay: 3D-Screen NS4A-NS3 protease platform, luciferase reporter, Hela cells, native; assay type: cell-based, HCV genotype 1b; settings: native NS4A-NS3 protease platform, Hela cells
T2 construct: the NS3 protease (residues 3-181); expressed in transfected cells; host or cells: Hela cells
Description: (§5) Cell culture supernatant was discarded and 100 ul of Lysis buffer were added to each well. Following 10 nm of vigorous shaking, the lysate was transferred to white opaque 96 well-plates and 100 ul of Luciferin buffer were added. Chemi-luminescence measurement was performed immediately using a Microlumat LB96 luminometer (Berthold, Thoiry, France) with 1 or 10 sec integration time.
3D-sensors confirmed in yeast were further investigated in Hela cells.

[4] = system: NS5B from genotype 1a or 1b; assay: Genotype profiling with the 3D-Screen platform, 3D-sensor N21I4; assay type: cell-based, HCV genotypes 1a and 1b; settings: Huh-7 cells, genotype 1a versus 1b, increasing amounts
Description: Percentages of luciferase inhibition in the presence of the Indol Acetamid NS5B specific ligand cVVS-023476 were represented for N21 I4 peptide targeting NS5B from genotype 1a and 1b.
HCV variants are classified into six genotypes (from 1 to 6) associated with a lower case letter to indicate the subtype (Le Guillou-Guillemette et al., 2007). Since sensitivity to drugs could vary from one HCV genotype to the other (Manns et al., 2007), the investors tested whether the 3D-Screen platform could be able to discriminate such differences which is highly important for preclinical profiling of drug candidates. The inventors thus verified that the 3D-Sensor N21I4 did interact with the polymerase NS5B from genotypes 1a and 1b in Hela and Huh7 cells in an equivalent way.
Huh-7 cells were transiently transfected with three expression plasmids encoding the reporter gene luciferase, the target NS5B from genotype 1a or 1b and the conformation sensitive peptide N21I4. After incubation with increasing amounts of cVVS-023476, luciferase expression was measured.

[5] = target: native NS4A-NS3 full length protein (Hepatitis C virus genotype 1b, UniProt P26662); assay: 3D-Screen NS4A-NS3 full length platform, luciferase reporter, Hela cells, native; assay type: cell-based, HCV genotype 1b; parameters: the GSGS linker and the NS3 protease (residues 3-631); expressed in transfected cells; settings: native NS4A-NS3 full length platform, Hela cells
Description: as §5

[6] = target: T3, NS5BΔ21 (Hepatitis C virus genotype 1b, UniProt P26662); assay type: cell-based, HCV genotype 1b; settings: selective medium lacking histidine, leucine and tryptophane, supplemented with ligand, X-Gal overlay
T3 construct: lexA/truncated HCV polymerase lacking the C-terminal 21 amino-acids fusion protein as a bait; expressed in transfected cells; host or cells: Saccharomyces cerevisiae L40, plasmid pVVS468
Description: Yeast cells carrying the bait (NS5BΔ21-LexA) were transformed with the prey represented by a library of random peptides (in frame with the viral VP16 activation domain). […] The interacting peptides were then tested in presence of ligands known to induce conformational changes in the bait NS5B.
The naïve yeast was transformed with the pVVS468 (NS5BΔ21 fused to LexA) according to the Lithium Acetate transformation protocol (Schiestl et al, 1989). […] Resulting double transformants were spread on SD Agar medium lacking Tryptophan and Leucine, and incubated for 48 hours at 30° C. Colonies were then scraped and mixed. 1/500th of the suspension obtained was plated on SD Agar medium lacking Tryptophan, Leucine and Histidine to identify HIS3 reporter's activation. After 3 to 5 days of growth, an X-Gal overlay was performed to identify LacZ activation. An X-Gal solution was mixed with an equal volume of 1% agarose cooled to 50° C. then poured slowly over yeast colonies on the surface of agar plates. The individual clones that stained blue were picked up to be grown overnight in deep wells in order to be further analyzed.
Yeast colonies containing a peptide interacting with the bait were grown overnight in 96-well deepwells in trp-leu-liquid medium. They were then spotted using a plugger either on trp-leu-his-or trp-leu-solid medium supplemented with different concentrations of specific or non specific drugs or an equivalent amount of solvent (DMSO). […] Result was confirmed at least 3 times.
Yeast two-hybrid experiments were carried in the L40 strain (ATCC, Molsheim, France) transformed with a lexA/truncated HCV polymerase lacking the C-terminal 21 amino-acids fusion protein as a bait and the VVS001 peptide library as a prey. […] Conformation sensitive peptides or “3D-sensors” were then identified by addition to the selected individual yeast colonies of cVVS-023477 or cVVS-023476, two anti-NS5B drugs known to induce conformational changes in the target polymerase (FIG. 1b).

[7] = system: ER; assay: Yeast two-hybrid spot test, control clone ER + 3D-sensor No 30-2; assay type: cell-based
Description: (a) Isolation of peptides interacting with the NS5BΔ21 in the yeast two-hybrid-system. Yeast cells carrying the bait (NS5BΔ21-LexA) were transformed with the prey represented by a library of random peptides (in frame with the viral VP16 activation domain). Colonies growing on selective medium and staining blue allowed the isolation of individual peptides that would specifically interact with the polymerase. (b) Isolation of conformation sensitive peptides. The interacting peptides were then tested in presence of ligands known to induce conformational changes in the bait NS5B. The “3D-sensors” were thus identified as the ones whose binding to the target polymerase was prevented by known anti-NS5B. The corresponding colonies didn't show any expression of the selection or reporter gene. (c) Characterization of NS5BΔ21 “3D-sensors” in a spot test. Here were represented 2 selected yeast colonies: one carrying the ER and its specific peptide called No 30-2 isolated previously and used as a control, the other carrying the NS5BΔ21 and its specific peptide called N21C272. Both clones were spotted on selective medium lacking histidine, leucine and tryptophane, supplemented or not with polymerase ligands and overlayed with an X-Gal staining The NS5BΔ21+N21C272 clone grew on selective medium in the absence of any NS5B ligand and stained positive for LacZ. […]

[8] = target: T4, NS5BΔ21 M414T mutant (Hepatitis C virus genotype 1b, UniProt P26662, M2833T); assay: 3D-Screen-NS5B mutant profiling, Hela cells, M414T; assay type: cell-based, HCV genotype 1b; settings: increasing concentrations, 24 hours
T4 construct: expressed in transfected cells; host or cells: Hela cells, plasmid pVVS516
Description: as §3, §1, §2, §4

[9] = target: T5, NS5BΔ21 S368A mutant (Hepatitis C virus genotype 1b, UniProt P26662, A2754S/A2757V/K2950R/L2476M/R2673K/S2787A/V2681I); assay: 3D-Screen-NS5B mutant profiling, Hela cells, S368A; assay type: cell-based, HCV genotype 1b; settings: increasing concentrations, 24 hours
T5 construct: expressed in transfected cells; host or cells: Hela cells, plasmid pVVS799
Description: as §3, §1, §2, §4

[10] = target: T6, NS5BΔ21 C316Y mutant (Hepatitis C virus genotype 1b, UniProt P26662, N2735Y); assay: 3D-Screen-NS5B mutant profiling, Hela cells, C316Y; assay type: cell-based, HCV genotype 1b; settings: increasing concentrations, 24 hours
T6 construct: truncated HCV polymerase lacking the C-terminal 21 amino-acids; expressed in transfected cells; host or cells: Hela cells
Description: as §3, §1, §2, §4

[11] = system: Hela cells; assay: Cytotoxicity assay (XTT) on transfected cells; assay type: cell-based, human; settings: 100 μM
Description: Viability measurements were performed on cells transfected and seeded in 96 well plates as described above and incubated with drugs for 24 hours. 0.15 mg/ml of XTT solution (Roche Diagnostics, Meylan, France) were added to each well and the plates incubated for 1 hour at 37° C. The optical density of each well's cell culture supernatant was analysed using a spectrophotometer (at 450 nm with deduction of background signal at 690 nm).

[12] = listed as benzothiadiazidic compound

Row | Molecule | inhibition at 1 µM ([1]; HeLa, 1 uM final concentration, 24 hours, 3D-sensor N21C272, versus DMSO) [%] | inhibition at 10 µM ([1]; HeLa, 10 uM final concentration, 24 hours, 3D-sensor N21C272, versus DMSO) [%] | inhibition of the luciferase signal (in words) [1] | pIC50 [1] | pIC50 [2] | reporter inhibition (in words) [3] | sensitivity of NS5B from two different genotypes to the drug [4] | reporter inhibition (in words) [5] | growth on selective medium and LacZ staining of the NS5BΔ21+N21C272 yeast clone [6] | sensitivity of the control clone (ER + 3D sensor No 30.2 interaction) to ligand [7] | luciferase inhibition ([1]; 1 uM final concentration, 24 hours, 3D-sensor N21C272, versus DMSO) [%] | luciferase inhibition ([1]; 10 uM final concentration, 24 hours, 3D-sensor N21C272, versus DMSO) | reporter inhibition (in words) [8] | reporter inhibition (in words) [8, 12] | reporter inhibition (in words) [9] | reporter inhibition (in words) [10] | reporter inhibition (in words) [10, 12] | toxicity (in words) [11]
1 | CCN(CC)C1CCN(C(=O)Cn2c(-c3ccc(Cl)cc3)c(C3CCCCC3)c3ccc(C(=O)O)cc32)CC1 [cVVS-023476, 1-{[6-Carboxy-2-(4-chlorophenyl)-3-cyclohexyl-1H-indol-1-yl-]acetyl}-N,N-diethylpiperidin-4-aminium Chloride] | 67 | 82.6 | strong inhibition | 6.52 and 5.70 to 6.70 | 5.70 to 6.70 | only on the NS5B platform | slightly different sensitivity | only on the NS5B platform | – | – | – | – | – | – | – | – | – | –
2 | N-1-cyclobutyl-4-hydroxyquinolon-3-yl-benzothiadiazin [cVVS-023477] | – | – | strongly reduced | 5.49 | – | – | – | – | didn't show any growth | not affected | 51 | 90% and 83.2%+/−7.5 | the 50% signal inhibition was not reached | didn't show any noticeable reporter inhibition | didn't show any noticeable reporter inhibition | the 50% signal inhibition was not reached | didn't show any noticeable reporter inhibition | not toxic
